Each block holds one compound with its values, some of them ahead of it. Residues, ends and D or L forms follow the SMILES beside them.
What was measured:
4T1-luc cells = test: 4T1-luc metastatic breast cancer model in BALB/c mice; assay type: in vivo; details: BALB/c mice, 2, 10 or 50 mg/kg, 7 day per week during 10 days
From the text: FIG. 5: Kindpep1 reduces tumor growth and metastatic spread in breast cancer in vivo. A. Diagram presenting the course of the experiment. B. Corresponding relative tumor growth graph to bioluminescence images of tumors at day 25. C. Corresponding graph showing the quantification of the total area of metastatic nodules found in the different groups of mice to bioluminescence images of metastasis at day 25. Area ph/s/group stands for area photon/second/group.
4T1-luc model: 1×10^5 4T1-luc cells were inoculated subcutaneously in the flanks of 6-week old female BALB/c mice (n=28). Eleven days after tumor cell inoculation, […] mice were randomly assigned to receive intraperitoneal injection of Kindpep1 (2, 10 or 50 mg/kg) or placebo (PBS). The tumor growth and the progression of metastatic lesions were also weekly monitored by bioluminescence imaging of animals using the Nightowl imaging system. On day 25 after tumor cell inoculation, anesthetized mice were sacrificed by cervical dislocation.
These observations prompted the investigation of the effects of Kindpep1 in vivo. […] Thus, the effects of Kindpep1 on tumor dissemination in a metastatic breast cancer model was studied. 4T1 cells were used because they have a high Kindlin-1 expression and have been also described to form lung metastasis in vivo. […]

[1] = tested on: triple negative breast cancer PDX; test: Triple negative breast cancer patient derived xenograft (PDX) model; assay type: in vivo; details: nude mice, 10 mg/Kg intraperitoneal 5 days per week
Method: FIG. 6: Kindpep1 reduces the metastatic spread in a breast cancer PDX model. A. Diagram presenting the course of the experiment. B Quantification of the number of metastatic nodules found in the lungs of control and Kindpep1 treated mice. Mean±SEM are represented. Statistical analyses were performed by a t-test.
The triple negative breast cancer PDX model expressing high levels of Kindlin-1 was obtained from the Laboratoire d'Investigation Pré-clinique. Informed consent was obtained from patient before xenograft establishment. When tumor reached a volume of 60 to 200 mm^3, mice were randomly assigned to the control or treated group. Kindpep1 was administrated by intraperitoneal injection at a dose of 10 mg/kg 5 times a week. The vehicle alone (Nacl 0.9%) was administered to the control group following the same treatment regimen as with the drug. The control and treated group consisted of 10 mice each.
Then, a triple negative breast cancer patient derived xenograft (PDX) model previously characterized as highly metastatic and presenting high expression levels of Kindlin-1 was chosen. Tumor fragments were grafted into the interscapular fat pad of female nude immunodeficient mice and 5 days later the treatment started. […] The treatment was administered by intraperitoneal injections 5 days per week and tumor growth was monitored until reaching the ethical size, i.e. 2 cm^3 (FIG. 6A). […]

[2] = tested on: H358 lung cancer cell line; test: NCI-H358 KRAS-dependent lung cancer xenograft mouse model; assay type: in vivo; details: 10 mg/Kg intraperitoneal 5 days per week
Method: FIG. 9: Kindpep decreases tumor growth of KRAS-dependent tumors in vivo. A. Diagram presenting the course of the experiment. B. Scatter plot showing the tumor volume of the different mice of the control and Kindpep1 treated groups, at the end of the treatment. Mean±SD are represented (*p<0.05). C. Graph monitoring tumor growth of control and Kindpep1 treated mice during the course of the experiment. Mean±SD are represented.
NCI-H358 model: 1×10^5 cells were injected subcutaneously in the flanks of 6-week old female BALB/c mice (n=10 mice for each control and treated groups). Tumor volume was measured with caliper 3 times a week. […] Tumor volumes were calculated as: Volume (cm^3)=a×b^2/2 (a and b are the two registered perpendicular diameters a>b). Tumor growth inhibition (TGI) was calculated using the following formula [1−(Vft−V0t)/(Vfc−V0c))]*100 where Vft=final volume of the treated group (at the end of the treatment); Vot=initial volume of the treatment group (at the beginning of the treatment); Vfc=final volume of the control group (at the end of the treatment); V0c=initial volume of the control group (at the beginning of the treatment).
Finally, inventors wanted to validate in vivo the impact of Kindpep1 treatment in KRAS-dependent tumors. […] The treatment was administered by intraperitoneal injections 5 days per week and tumor growth was monitored for 50 days (FIG. 9A).

β1-integrin = target: T1, β1-integrin (Homo sapiens, UniProt P05556); test: Flow cytometry of cell-surface active β1-integrin (9EG7) in MDA MB 231 cells; assay type: cell-based; details: MDA MB 231, 2 mM MnCl2, positive control
T1 construct: endogenous in cells; host or cells: MDA MB 231 human breast cancer cells
Method: FIG. 3: Kindpep1 reduces β1-integrin activation. Fluorescence activated sorter (FACS) histograms (top) and the corresponding bar graphs showing the mean fluorescence intensity (MFI) of cell-surface active β-1 integrin (9EG7 staining) of MDA MB 231 cells untreated, treated with Kindpep1 (200 μM) for 15 h or treated with 2 mM MnCl2.
To quantify the expression levels of integrins, cultured cells were trypsinized, washed and incubated for 1 h at 4° C. in phosphate-buffered saline (PBS) containing 150 mM NaCl and 1% BSA with the rat anti-1 integrin (9EG7 clone, 1:300) primary antibodies obtained from BD Biosciences. Cells were then washed 3 times, incubated with Alexa Fluor 488-conjugated secondary antibody for 1 h at 4° C. and washed. 1×10^4 cells were analyzed on a FACS Calibur. The mean fluorescence intensity of each sample was obtained using the Flowing software 2.
The effect of Kindpep1 on β1-integrin activation was confirmed by performing the same immunofluorescence assays using the human breast cancer cell line MDA MB 231, characterized by a high Kindlin-1 protein endogeneous expression.

[3] = target: β1-integrin of 168FARN mouse breast cancer cells (endogenous) (mouse) (UniProt P09055); test: cell-based or functional assay
Sequence of β1-integrin of 168FARN mouse breast cancer cells (endogenous) (mouse) (P09055 21-798): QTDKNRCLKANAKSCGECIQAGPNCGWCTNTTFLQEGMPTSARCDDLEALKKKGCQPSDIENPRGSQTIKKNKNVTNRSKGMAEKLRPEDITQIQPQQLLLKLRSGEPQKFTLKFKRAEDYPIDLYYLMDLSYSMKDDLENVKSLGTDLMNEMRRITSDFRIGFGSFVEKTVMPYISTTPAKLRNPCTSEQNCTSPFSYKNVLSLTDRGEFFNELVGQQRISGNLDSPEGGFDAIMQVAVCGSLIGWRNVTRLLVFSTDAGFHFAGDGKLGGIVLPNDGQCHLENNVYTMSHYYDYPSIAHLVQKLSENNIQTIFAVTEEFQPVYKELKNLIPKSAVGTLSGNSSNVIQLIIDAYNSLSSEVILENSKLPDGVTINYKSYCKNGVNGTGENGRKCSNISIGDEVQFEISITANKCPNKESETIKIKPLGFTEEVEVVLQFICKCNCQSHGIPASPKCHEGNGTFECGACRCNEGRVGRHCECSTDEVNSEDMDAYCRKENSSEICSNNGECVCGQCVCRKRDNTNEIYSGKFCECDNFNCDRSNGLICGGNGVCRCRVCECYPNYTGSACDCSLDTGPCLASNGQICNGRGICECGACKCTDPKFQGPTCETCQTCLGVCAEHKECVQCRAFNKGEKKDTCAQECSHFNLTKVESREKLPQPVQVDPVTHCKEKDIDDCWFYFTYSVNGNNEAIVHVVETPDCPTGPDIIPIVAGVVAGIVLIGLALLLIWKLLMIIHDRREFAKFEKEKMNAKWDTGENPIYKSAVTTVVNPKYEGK

T1 sequence (P05556 21-798): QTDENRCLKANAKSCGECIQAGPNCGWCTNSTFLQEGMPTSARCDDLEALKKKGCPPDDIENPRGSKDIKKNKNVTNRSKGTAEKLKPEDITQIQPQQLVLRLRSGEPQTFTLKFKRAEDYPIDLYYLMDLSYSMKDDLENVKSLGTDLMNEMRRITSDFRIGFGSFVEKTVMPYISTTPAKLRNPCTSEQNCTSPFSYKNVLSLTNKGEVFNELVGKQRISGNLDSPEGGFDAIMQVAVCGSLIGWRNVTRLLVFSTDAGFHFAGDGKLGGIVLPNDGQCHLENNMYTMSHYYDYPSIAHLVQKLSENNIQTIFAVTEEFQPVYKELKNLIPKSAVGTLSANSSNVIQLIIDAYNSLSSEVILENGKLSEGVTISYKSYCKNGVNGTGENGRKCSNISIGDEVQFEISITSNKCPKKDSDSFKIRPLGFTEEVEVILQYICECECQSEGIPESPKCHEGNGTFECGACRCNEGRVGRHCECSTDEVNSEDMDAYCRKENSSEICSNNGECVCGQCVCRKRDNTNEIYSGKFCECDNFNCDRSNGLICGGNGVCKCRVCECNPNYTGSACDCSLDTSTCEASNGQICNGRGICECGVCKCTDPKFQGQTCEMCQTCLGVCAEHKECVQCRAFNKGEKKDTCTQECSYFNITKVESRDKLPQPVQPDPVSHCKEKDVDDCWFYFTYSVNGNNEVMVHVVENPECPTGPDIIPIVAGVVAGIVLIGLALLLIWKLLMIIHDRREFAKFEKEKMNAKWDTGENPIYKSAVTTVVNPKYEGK

Compound: CC[C@H](C)[C@H](NC(=O)[C@H](CCCCN)NC(=O)[C@H](CCCCN)NC(=O)[C@H](CCCCN)NC(=O)[C@H](CCCCN)NC(=O)[C@@H](N)C(C)C)C(=O)N[C@@H](CCCCN)C(=O)N[C@@H](C)C(=O)N[C@@H](CCC(=O)O)C(=O)N[C@H](C(=O)N[C@@H](CCCCN)C(=O)N[C@H](C(=O)N[C@@H](CO)C(=O)N[C@@H](Cc1ccccc1)C(=O)N[C@@H](CC(C)C)C(=O)N[C@@H](CCCNC(=N)N)C(=O)N[C@@H](CCSC)C(=O)N[C@@H](CCCCN)C(=O)N[C@@H](CC(N)=O)C(=O)N[C@@H](CCCNC(=N)N)C(=O)N[C@@H](CC(N)=O)C(=O)N[C@@H](CO)C(=O)N[C@@H](C)C(=O)N[C@@H](CO)C(=O)N[C@@H](CCC(N)=O)C(=O)N[C@H](C(=O)N[C@@H](C)C(=O)N[C@@H](CO)C(=O)N[C@@H](CO)C(=O)N[C@@H](CC(C)C)C(=O)O)C(C)C)[C@@H](C)CC)[C@@H](C)CC [Kindpep1] (H-VKKKKIKAEIKISFLRMKNRNSASQVASSL-OH)
death during the treatment (4T1-luc cells): no death was observed | side effects (4T1-luc cells): no any side effects was detected | death during the treatment [1]: no death was observed | side effects [1]: no side effects were detected | toxicities in nude mice [2]: without apparent toxicities

levels of active β1-integrin on the cell surface (flow cytometry, 9EG7) (β1-integrin): increase levels of active β1-integrin
Compound: [Cl][Mn][Cl] [MnCl2]

velocity of cell migration of 168FARN cells in 3D collagen matrix (time-lapse tracking) [3]: 3.8 fold
Compound: wild-type Kindlin-1 expressed in 168FARN cells (from UniProt Q9BQL6 1-677)

Reference: patent US20250163113A1, “PEPTIDES TARGETING THE INTERACTION BETWEEN KINDLIN-1 AND Beta-INTEGRIN” (INSTITUT CURIE, priority 2022, published 2025)
